US20230085307A1, “PYRIDAZINONE COMPOUND AND HERBICIDE” (NISSAN CHEMICAL CORPORATION, priority 2019, published 2023)

Tests used:
velvetleaf [1] = assay: Test Example 4: herbicidal effect by soil treatment (Table 19, symbol M); format: in vivo, velvetleaf (Abutilon theophrasti); settings: amount of applied herbicide 320 g/ha
In short: (§1)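 Emulsion of test compound, water-diluted to predetermined amount, sprayed on soil after sowing (seed depth ~1.5 cm, sterilized diluvial soil). Greenhouse, 25–30° C. Effect graded at three weeks post-spray.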

wild oat [2] = assay: Test Example 4: herbicidal effect by soil treatment (Table 19, symbol I); format: in vivo, wild oat (Avena fatua); settings: amount of applied herbicide 320 g/ha
In short: as §1

persian speedwell [3] = assay: Test Example 4: herbicidal effect by soil treatment (Table 19, symbol R); format: in vivo, Persian speedwell (Veronica persica); settings: amount of applied herbicide 320 g/ha
In short: as §1

persian speedwell [4] = assay: Test Example 5: herbicidal effect by foliage application, plastic box (Table 20, symbol R); format: in vivo, Persian speedwell (Veronica persica); settings: foliage application, 320 g/ha, three weeks after application
In short: (§2)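 Post-emergence foliar test in sterilized diluvial soil. Compound applied as water-diluted emulsion at a predetermined rate to 14-day-old plants; evaluation at three weeks.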

blackgrass [5] = assay: Test Example 4: herbicidal effect by soil treatment (Table 19, symbol J); format: in vivo, blackgrass (Alopecurus myosuroides); settings: amount of applied herbicide 320 g/ha
In short: as §1

rice flat sedge = assay: Test Example 3: herbicidal effect by foliage application, Wagner pot (Table 18, symbol E); format: in vivo, rice flat sedge (Cyperus iria); settings: 320 g/ha
In short: (§3)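 Plants were sown in alluvial soil held under 0.1–0.5 cm standing water and grown 14 days in a greenhouse at 25–30 °C. An emulsifiable formulation, water-diluted to the set dose, was then sprayed onto the foliage, and effects were scored three weeks later using previously defined criteria.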

southern crabgrass [6] = assay: Test Example 5: herbicidal effect by foliage application, plastic box (Table 20, symbol F); format: in vivo, southern crabgrass (Digitaria ciliaris); settings: foliage application, 320 g/ha, three weeks after application
In short: as §2

late watergrass = assay: Test Example 1: herbicidal activity, application before weed generation under submerged conditions (Table 16, symbol A); format: in vivo, late watergrass (Echinochloa oryzicola); settings: amount of applied herbicide 320 g/ha
In short: (§4)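 Emulsion formulation, water-diluted to set dose, was put onto the flooded surface (4 cm depth, alluvial soil) the same day weeds were sown and 2.5-leaf rice transplanted. After 3 weeks at 25-30 °C under glass, each species was rated 0 (≤5% kill) to 5 (≥90% kill).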

Italian ryegrass [7] = assay: Test Example 5: herbicidal effect by foliage application, plastic box (Table 20, symbol K); format: in vivo, Italian ryegrass (Lolium multiflorum); settings: foliage application, 320 g/ha, three weeks after application
In short: as §2

barnyard grass [8] = assay: Test Example 3: herbicidal effect by foliage application, Wagner pot (Table 18, symbol H); format: in vivo, barnyard grass (Echinochloa crus-galli); settings: 320 g/ha
In short: as §3

lambsquarters [9] = assay: Test Example 4: herbicidal effect by soil treatment (Table 19, symbol O); format: in vivo, lambsquarters (Chenopodium album); settings: amount of applied herbicide 320 g/ha
In short: as §1

velvetleaf [10] = assay: Test Example 5: herbicidal effect by foliage application, plastic box (Table 20, symbol M); format: in vivo, velvetleaf (Abutilon theophrasti); settings: foliage application, 320 g/ha, three weeks after application
In short: as §2

oval-leafed pondweed = assay: Test Example 1: herbicidal activity, application before weed generation under submerged conditions (Table 16, symbol C); format: in vivo, oval-leafed pondweed (Monochoria vaginalis); settings: amount of applied herbicide 320 g/ha
In short: as §4

green foxtail [11] = assay: Test Example 4: herbicidal effect by soil treatment (Table 19, symbol G); format: in vivo, green foxtail (Setaria viridis); settings: amount of applied herbicide 320 g/ha
In short: as §1

windgrass [12] = assay: Test Example 4: herbicidal effect by soil treatment (Table 19, symbol L); format: in vivo, windgrass (Apera spica-venti); settings: amount of applied herbicide 320 g/ha
In short: as §1

blackgrass [13] = assay: Test Example 5: herbicidal effect by foliage application, plastic box (Table 20, symbol J); format: in vivo, blackgrass (Alopecurus myosuroides); settings: foliage application, 320 g/ha, three weeks after application
In short: as §2

barnyard grass [14] = assay: Test Example 5: herbicidal effect by foliage application, plastic box (Table 20, symbol H); format: in vivo, barnyard grass (Echinochloa crus-galli); settings: foliage application, 320 g/ha, three weeks after application
In short: as §2

windgrass [15] = assay: Test Example 5: herbicidal effect by foliage application, plastic box (Table 20, symbol L); format: in vivo, windgrass (Apera spica-venti); settings: foliage application, 320 g/ha, three weeks after application
In short: as §2

Italian ryegrass [16] = assay: Test Example 4: herbicidal effect by soil treatment (Table 19, symbol K); format: in vivo, Italian ryegrass (Lolium multiflorum); settings: amount of applied herbicide 320 g/ha
In short: as §1

lambsquarters [17] = assay: Test Example 5: herbicidal effect by foliage application, plastic box (Table 20, symbol O); format: in vivo, lambsquarters (Chenopodium album); settings: foliage application, 320 g/ha, three weeks after application
In short: as §2

green foxtail [18] = assay: Test Example 5: herbicidal effect by foliage application, plastic box (Table 20, symbol G); format: in vivo, green foxtail (Setaria viridis); settings: foliage application, 320 g/ha, three weeks after application
In short: as §2

Japanese bulrush = assay: Test Example 1: herbicidal activity, application before weed generation under submerged conditions (Table 16, symbol B); format: in vivo, Japanese bulrush (Schoenoplectus juncoides); settings: amount of applied herbicide 320 g/ha
In short: as §4

Chinese sprangletop = assay: Test Example 3: herbicidal effect by foliage application, Wagner pot (Table 18, symbol D); format: in vivo, chinese sprangletop (Leptochloa chinensis); settings: 320 g/ha
In short: as §3

southern crabgrass [19] = assay: Test Example 4: herbicidal effect by soil treatment (Table 19, symbol F); format: in vivo, southern crabgrass (Digitaria ciliaris); settings: amount of applied herbicide 320 g/ha
In short: as §1

redroot pigweed = assay: Test Example 4: herbicidal effect by soil treatment (Table 19, symbol N); format: in vivo, redroot pigweed (Amaranthus retroflexus); settings: amount of applied herbicide 320 g/ha
In short: as §1

barnyard grass [20] = assay: Test Example 4: herbicidal effect by soil treatment (Table 19, symbol H); format: in vivo, barnyard grass (Echinochloa crus-galli); settings: amount of applied herbicide 320 g/ha
In short: as §1

chickweed = assay: Test Example 4: herbicidal effect by soil treatment (Table 19, symbol P); format: in vivo, common chickweed (Stellaria media); settings: amount of applied herbicide 320 g/ha
In short: as §1

wild oat [21] = assay: Test Example 5: herbicidal effect by foliage application, plastic box (Table 20, symbol I); format: in vivo, wild oat (Avena fatua); settings: foliage application, 320 g/ha, three weeks after application
In short: as §2

Compound	M: velvetleaf, herbicidal effect grade (velvetleaf [1])	I: wild oat, herbicidal effect grade (wild oat [2])	R: persian speedwell, herbicidal effect grade (persian speedwell [3])	herbicidal effect on persian speedwell (R) (persian speedwell [4])	J: blackgrass, herbicidal effect grade (blackgrass [5])	herbicidal effect on rice flat sedge (E) (rice flat sedge)	herbicidal effect on southern crabgrass (F) (southern crabgrass [6])	Herbicidal effect, A: late watergrass (late watergrass)	herbicidal effect on Italian ryegrass (K) (Italian ryegrass [7])	herbicidal effect on barnyard grass (H) (barnyard grass [8])	O: lambsquarters, herbicidal effect grade (lambsquarters [9])	herbicidal effect on velvetleaf (M) (velvetleaf [10])	Herbicidal effect, C: oval-leafed pondweed (oval-leafed pondweed)	G: green foxtail, herbicidal effect grade (green foxtail [11])	L: windgrass, herbicidal effect grade (windgrass [12])	herbicidal effect on blackgrass (J) (blackgrass [13])	herbicidal effect on barnyard grass (H) (barnyard grass [14])	herbicidal effect on windgrass (L) (windgrass [15])	K: Italian ryegrass, herbicidal effect grade (Italian ryegrass [16])	herbicidal effect on lambsquarters (O) (lambsquarters [17])	also measured
COc1ccc(-c2sc3cc(OC)c(Cl)cc3c2-c2c(O)c(C)nn(C)c2=O)cc1 [5-070]	0 (Herbicidal rate of 5% or less (almost no effect))	0 (Herbicidal rate of 5% or less (almost no effect))	3 (Herbicidal rate of 40% or more and less than 70%)	4 (Herbicidal rate of 70% or more and less than 90%)	0 (Herbicidal rate of 5% or less (almost no effect))	0 (Herbicidal rate of 5% or less (almost no effect))	0 (Herbicidal rate of 5% or less (almost no effect))	0 (Herbicidal rate of 5% or less (almost no effect))	0 (Herbicidal rate of 5% or less (almost no effect))	3 (Herbicidal rate of 40% or more and less than 70%)	0 (Herbicidal rate of 5% or less (almost no effect))	0 (Herbicidal rate of 5% or less (almost no effect))	0 (Herbicidal rate of 5% or less (almost no effect))	0 (Herbicidal rate of 5% or less (almost no effect))	0 (Herbicidal rate of 5% or less (almost no effect))	0 (Herbicidal rate of 5% or less (almost no effect))	0 (Herbicidal rate of 5% or less (almost no effect))	0 (Herbicidal rate of 5% or less (almost no effect))	0 (Herbicidal rate of 5% or less (almost no effect))	0 (Herbicidal rate of 5% or less (almost no effect))	herbicidal effect on green foxtail (G) (green foxtail [18]): 0 (Herbicidal rate of 5% or less (almost no effect)); Herbicidal effect, B: Japanese bulrush (Japanese bulrush): 2 (Herbicidal rate of 20% or more and less than 40%); herbicidal effect on Chinese sprangletop (D) (Chinese sprangletop): 0 (Herbicidal rate of 5% or less (almost no effect)); F: southern crabgrass, herbicidal effect grade (southern crabgrass [19]): 0 (Herbicidal rate of 5% or less (almost no effect)); N: redroot pigweed, herbicidal effect grade (redroot pigweed): 0 (Herbicidal rate of 5% or less (almost no effect)); H: barnyard grass, herbicidal effect grade (barnyard grass [20]): 0 (Herbicidal rate of 5% or less (almost no effect)); P: chickweed, herbicidal effect grade (chickweed): 1 (Herbicidal rate of 5% or more and less than 20%); herbicidal effect on wild oat (I) (wild oat [21]): 0 (Herbicidal rate of 5% or less (almost no effect))
CCCC(=O)Oc1c(C)nn(C)c(=O)c1-c1c(-c2ccccc2OCC)sc2cc(OC)c(Cl)cc12 [5-073]	0 (Herbicidal rate of 5% or less (almost no effect))	0 (Herbicidal rate of 5% or less (almost no effect))	0 (Herbicidal rate of 5% or less (almost no effect))	0 (Herbicidal rate of 5% or less (almost no effect))	0 (Herbicidal rate of 5% or less (almost no effect))	0 (Herbicidal rate of 5% or less (almost no effect))	5 (Herbicidal rate of 90% or more (almost completely withered))	5 (Herbicidal rate of 90% or more (almost completely withered))	0 (Herbicidal rate of 5% or less (almost no effect))	5 (Herbicidal rate of 90% or more (almost completely withered))	0 (Herbicidal rate of 5% or less (almost no effect))	4 (Herbicidal rate of 70% or more and less than 90%)	4 (Herbicidal rate of 70% or more and less than 90%)	2 (Herbicidal rate of 20% or more and less than 40%)	0 (Herbicidal rate of 5% or less (almost no effect))	0 (Herbicidal rate of 5% or less (almost no effect))	5 (Herbicidal rate of 90% or more (almost completely withered))	3 (Herbicidal rate of 40% or more and less than 70%)	0 (Herbicidal rate of 5% or less (almost no effect))	4 (Herbicidal rate of 70% or more and less than 90%)	herbicidal effect on green foxtail (G) (green foxtail [18]): 5 (Herbicidal rate of 90% or more (almost completely withered)); Herbicidal effect, B: Japanese bulrush (Japanese bulrush): 4 (Herbicidal rate of 70% or more and less than 90%); herbicidal effect on Chinese sprangletop (D) (Chinese sprangletop): 0 (Herbicidal rate of 5% or less (almost no effect)); F: southern crabgrass, herbicidal effect grade (southern crabgrass [19]): 0 (Herbicidal rate of 5% or less (almost no effect)); N: redroot pigweed, herbicidal effect grade (redroot pigweed): 1 (Herbicidal rate of 5% or more and less than 20%); H: barnyard grass, herbicidal effect grade (barnyard grass [20]): 0 (Herbicidal rate of 5% or less (almost no effect)); P: chickweed, herbicidal effect grade (chickweed): 0 (Herbicidal rate of 5% or less (almost no effect)); herbicidal effect on wild oat (I) (wild oat [21]): 0 (Herbicidal rate of 5% or less (almost no effect))
